Experimental data reported in patent US8088758B2, “17β-hydroxysteroid dehydrogenase type I inhibitors” (Abbott Products GmbH, priority 2003, dated 2012).

Biological target: T1, recombinant human 17β-hydroxysteroid dehydrogenase type 1 (Homo sapiens, UniProt P14061)
T1 construct: made in house; host or cells: Sf9 insect cells (baculovirus, Bac to Bac Expression System)
T1 sequence (P14061 1-328): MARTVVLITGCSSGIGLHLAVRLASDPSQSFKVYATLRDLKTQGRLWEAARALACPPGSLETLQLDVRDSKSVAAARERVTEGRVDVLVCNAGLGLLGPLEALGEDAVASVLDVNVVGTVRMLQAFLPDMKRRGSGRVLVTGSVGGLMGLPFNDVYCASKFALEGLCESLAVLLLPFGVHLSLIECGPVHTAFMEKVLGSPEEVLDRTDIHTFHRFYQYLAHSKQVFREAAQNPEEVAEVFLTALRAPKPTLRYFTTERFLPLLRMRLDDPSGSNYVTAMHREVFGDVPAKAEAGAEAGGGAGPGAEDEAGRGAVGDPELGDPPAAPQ
Test: Inhibition of recombinant human 17β-hydroxysteroid dehydrogenase type 1 (conversion of 3H-estrone to estradiol, HPLC)
Type: biochemical
Details: 30 nM 3H-estrone, 1 mM NADPH, 30 min at RT; for inhibition at 0.1 µM: inhibitor 100 nM, read-out: Inhibition of rec. 17β-HSD1 (% inhibition), 100 nM; for inhibition at 1 µM: inhibitor 1 μm, read-out: Inhibition of rec. 17β-HSD1 (% inhibition), 1 μm
Method: 1. Inhibition of the 17β-hydroxysteroid Dehydrogenase Type 1 Enzyme
17β-HSD1 Purification: Recombinant baculovirus was generated by the “Bac to Bac Expression System” (Invitrogen). Recombinant bacmid was transfected to Sf9 insect cells using “Cellfectin Reagent” (Invitrogen). 60 h later cells were harvested; the microsomal fraction was isolated as described by Puranen et al. 1994. Aliquots were stored frozen until determination of enzymatic activity.
Assay—Inhibition of Recombinant Human 17β-hydroxysteroid Dehydrogenase Type 1:
Recombinant protein (0.1 μg/ml) was incubated in 20 mM KH2PO4 pH 7.4 with 30 nM 3H-estrone and 1 mM NADPH for 30 min at RT, in the presence of potential inhibitors at concentrations of 1 μM or 0.1 μM. Inhibitor stock solutions were prepared in DMSO. Final concentration of DMSO was adjusted to 1% in all samples. The enzyme reaction was stopped by addition of 10% trichloroacetic acid (final concentration). Samples were centrifuged in a microtiter plate at 4000 rpm for 10 min. Supernatants were applied to reverse phase HPLC on a Waters Symmetry C18 column, equipped with a Waters Sentry Guard column. Isocratic HPLC runs were performed at RT at a flow rate of 1 ml/min of acetonitrile:water 48:52 as running solvent. Radioactivity was monitored in the eluate by a Packard Flow Scintillation Analyzer. Total radioactivity for estrone and estradiol were determined in each sample and percent conversion of estrone to estradiol was calculated according to the following formula:
Percent inhibition was calculated as follows: % inhibition=100−% conversion

COc1ccc2c(c1)CC[C@H]1[C@@H]3[C@H](CCCCCC(=O)N4CCOCC4)CC(=O)[C@@]3(C)CC[C@H]21 [Example 354]
inhibition at 0.1 µM: 28.7% | inhibition at 1 µM: 80.3%

COc1ccc(S(=O)(=O)NC[C@H]2CC(=O)[C@@]3(C)CC[C@@H]4c5ccc(O)cc5CC[C@H]4[C@H]23)cc1 [Example 668]
inhibition at 0.1 µM: 52.4% | inhibition at 1 µM: 88.3%

COc1ccc(NC(=O)NCCCC[C@@H]2CC(=O)[C@@]3(C)CC[C@@H]4c5ccc(OC)cc5CC[C@H]4[C@H]23)cc1 [Example 471]
inhibition at 0.1 µM: 28.7% | inhibition at 1 µM: 77%

COc1ccc2c(c1)CC[C@H]1[C@@H]3[C@H](CCCCNC(=O)Nc4ccc(OC)c(OC)c4)CC(=O)[C@@]3(C)CC[C@H]21 [Example 488]
inhibition at 0.1 µM: 60.3% | inhibition at 1 µM: 91.6%

CCOC(=O)CNNC(=O)CCCCC[C@@H]1CC(=O)[C@@]2(C)CC[C@@H]3c4ccc(OC)cc4CC[C@H]3[C@H]12 [Example 414]
inhibition at 0.1 µM: 44.9% | inhibition at 1 µM: 49.9%

COc1ccc2c(c1)CC[C@H]1[C@@H]3[C@H](CCCCCC(=O)NCc4cccnc4)CC(=O)[C@@]3(C)CC[C@H]21 [Example 356]
inhibition at 0.1 µM: 26.9% | inhibition at 1 µM: 83.9%

COc1cccc(NC(=O)NCCC[C@@H]2CC(=O)[C@@]3(C)CC[C@@H]4c5ccc(OC)cc5CC[C@H]4[C@H]23)c1 [Example 443]
inhibition at 0.1 µM: 39.8% | inhibition at 1 µM: 84.1%

C[C@]12CC[C@@H]3c4ccc(O)cc4CC[C@H]3[C@@H]1[C@@H](CNS(=O)(=O)c1ccc(F)cc1)CC2=O [Example 665]
inhibition at 0.1 µM: 54.6% | inhibition at 1 µM: 91.2%

COc1ccc2c(c1)CC[C@H]1[C@@H]3[C@H](CCCNC(=O)Nc4cccc5ccccc45)CC(=O)[C@@]3(C)CC[C@H]21 [Example 451]
inhibition at 0.1 µM: 32.3% | inhibition at 1 µM: 74.6%

COc1ccc2c(c1)CC[C@H]1[C@@H]3[C@H](CCC(=O)Nc4ncc(C)s4)CC(=O)[C@@]3(C)CC[C@H]21 [Example 329]
inhibition at 0.1 µM: 78.9% | inhibition at 1 µM: 96.2%

COc1ccc2c(c1)CCC1C2CC[C@]2(C)C(=O)C[C@@H](CCCC(=O)NCCc3cccs3)C12 (stereo partly shown) [Example 29]
inhibition at 0.1 µM: 29.6% | inhibition at 1 µM: 69.3%

COc1ccc2c(c1)CC[C@H]1[C@@H]3[C@H](CCCCCC(=O)NCc4ccc5c(c4)OCO5)CC(=O)[C@@]3(C)CC[C@H]21 [Example 353]
inhibition at 0.1 µM: 46.3% | inhibition at 1 µM: 89.5%

C[C@]12CC[C@@H]3c4ccc(O)cc4CC[C@H]3[C@@H]1[C@@H](CNS(=O)(=O)c1ccc([N+](=O)[O-])cc1)CC2=O [Example 667]
inhibition at 0.1 µM: 30.3% | inhibition at 1 µM: 72.3%

CN(C[C@H]1CC(=O)[C@@]2(C)CC[C@@H]3c4ccc(O)cc4CC[C@H]3[C@H]12)S(=O)(=O)c1cc(S(=O)(=O)c2ccccc2)cs1 [Example 696]
inhibition at 0.1 µM: 35.7% | inhibition at 1 µM: 80.5%

COc1ccc2c(c1)CC[C@H]1[C@@H]3[C@H](CCC(=O)N4CCOCC4)CC(=O)[C@@]3(C)CC[C@H]21 [Example 316]
inhibition at 0.1 µM: 25.3% | inhibition at 1 µM: 74.5%

COc1ccc(NC(=O)NCCC[C@@H]2CC(=O)[C@@]3(C)CC[C@@H]4c5ccc(OC)cc5CC[C@H]4[C@H]23)cc1 [Example 446]
inhibition at 0.1 µM: 72.4% | inhibition at 1 µM: 94.2%

COc1ccc2c(c1)CCC1C2CC[C@]2(C)C(=O)C[C@H](C(=O)NCc3nc4ccccc4[nH]3)C12 (stereo partly shown) [Example 58]
inhibition at 0.1 µM: 25% | inhibition at 1 µM: 65.3%

COc1ccc2c(c1)CC[C@H]1[C@@H]3[C@H](CCCCC(=O)NCc4ccc5c(c4)OCO5)CC(=O)[C@@]3(C)CC[C@H]21 [Example 335]
inhibition at 0.1 µM: 59% | inhibition at 1 µM: 90.5%

COc1ccc2c(c1)CC[C@H]1[C@@H]3[C@H](CCC(=O)NCc4cccc(F)c4)CC(=O)[C@@]3(C)CC[C@H]21 [Example 322]
inhibition at 0.1 µM: 45.7% | inhibition at 1 µM: 66.3%

CN(C[C@H]1CC(=O)[C@@]2(C)CC[C@@H]3c4ccc(O)cc4CC[C@H]3[C@H]12)S(=O)(=O)c1cccs1 [Example 682]
inhibition at 0.1 µM: 49.2% | inhibition at 1 µM: 91.8%

COc1ccc2c(c1)CC[C@H]1[C@@H]3[C@H](CCCCC(=O)NCCc4cccs4)CC(=O)[C@@]3(C)CC[C@H]21 [Example 346]
inhibition at 0.1 µM: 58.2% | inhibition at 1 µM: 91.7%

COc1ccc2c(c1)CC[C@H]1[C@@H]3[C@H](CCCNC(=O)Nc4ccc5ccccc5c4)CC(=O)[C@@]3(C)CC[C@H]21 [Example 460]
inhibition at 0.1 µM: 50.1% | inhibition at 1 µM: 77.2%

Cc1cccc(S(=O)(=O)NC[C@H]2CC(=O)[C@@]3(C)CC[C@@H]4c5ccc(O)cc5CC[C@H]4[C@H]23)c1 [Example 677]
inhibition at 0.1 µM: 36.9% | inhibition at 1 µM: 83.7%

C[C@]12CC[C@@H]3c4ccc(O)cc4CC[C@H]3[C@@H]1[C@H](CCCC(=O)N1CCOCC1)CC2=O [Example 1, 3-Hydroxy-15β-(4-morpholin-4-yl-4-oxo-butyl)-estra-1,3,5(10)-trien-17-one]
inhibition at 0.1 µM: 49.9% | inhibition at 1 µM: 80.2%

COc1ccc2c(c1)CC[C@H]1[C@@H]3[C@H](CCCOC(=O)Nc4ccc(Cl)c(Cl)c4)CC(=O)[C@@]3(C)CC[C@H]21 [Example 749]
inhibition at 0.1 µM: 29.8% | inhibition at 1 µM: 57.3%

COc1ccc2c(c1)CC[C@H]1[C@@H]3[C@H](CCCOC(=O)Nc4ccc5c(c4)OCO5)CC(=O)[C@@]3(C)CC[C@H]21 [Example 748]
inhibition at 0.1 µM: 48.7% | inhibition at 1 µM: 90.6%

Cc1cccc(S(=O)(=O)N(C)C[C@H]2CC(=O)[C@@]3(C)CC[C@@H]4c5ccc(O)cc5CC[C@H]4[C@H]23)c1 [Example 694]
inhibition at 0.1 µM: 34.6% | inhibition at 1 µM: 87.3%

CCCCNC(=O)CCCCC[C@@H]1CC(=O)[C@@]2(C)CC[C@@H]3c4ccc(OC)cc4CC[C@H]3[C@H]12 [Example 365]
inhibition at 0.1 µM: 33.7% | inhibition at 1 µM: 86.4%

COc1ccc2c(c1)CC[C@H]1[C@@H]3[C@H](CCCCCC(=O)NCc4ccc(Cl)cc4)CC(=O)[C@@]3(C)CC[C@H]21 [Example 362]
inhibition at 0.1 µM: 35.1% | inhibition at 1 µM: 75.1%

COc1ccc2c(c1)CC[C@H]1[C@@H]3[C@H](CCCCCC(=O)N(C)Cc4ccccc4)CC(=O)[C@@]3(C)CC[C@H]21 [Example 364]
inhibition at 0.1 µM: 48.7% | inhibition at 1 µM: 90.8%

COc1ccc2c(c1)CC[C@H]1[C@@H]3[C@H](CCCCC(=O)NCCc4c[nH]c5c(C)cccc45)CC(=O)[C@@]3(C)CC[C@H]21 [Example 347]
inhibition at 0.1 µM: 38% | inhibition at 1 µM: 77.2%

C[C@]12CC[C@@H]3c4ccc(O)cc4CC[C@H]3[C@@H]1[C@@H](CNS(=O)(=O)c1cc(S(=O)(=O)c3ccccc3)cs1)CC2=O [Example 679]
inhibition at 0.1 µM: 26.5% | inhibition at 1 µM: 74.6%
